From patent US20220079934A1, “CRENOLANIB FOR TREATING PAIN” (Arog Pharmaceuticals, Inc., priority 2020, published 2022)

Assays:
wildtype TRKA = molecular target: T1, wildtype TRKA (Homo sapiens, UniProt P04629); experiment: Reaction Biology HotSpot Kinase assay (direct enzyme phosphorylation), TRKA; type: biochemical; details: 33P-ATP, 120 minutes at room temperature, filter-binding
T1 construct: purchased Reaction Biology
Experimental: (§1) Direct enzyme phosphorylation assay. The Reaction Biology HotSpot Kinase assay was used to screen the present invention against a panel of TRKA, TRKB, and TRKC kinases. For assays of all kinases, the TRK enzyme was prepared in base reaction buffer (20 mM Hepes (pH 7.5), 10 mM MgCl2, 1 mM EGTA, 0.02% Brij35, 0.02 mg/ml BSA, 0.1 mM Na3VO4, 2 mM DTT, 1% DMSO). The reaction was initiated by the addition of 33P-ATP (10 μCi/μL) into the mixture. The reaction mixture was incubated for 120 minutes at room temperature. Radioactivity was detected by filter-binding method, and kinase activity expressed as the percent remaining kinase activity in test samples compared to vehicle reactions. IC50 values and curve fitting were obtained using Prism (GraphPad Software). The activity of the besylate salt of the present invention was determined using a direct enzymatic Reaction Biology HotSpot Kinase assay. All IC50 values are presented in nanomolar concentration. In the direct enzymatic measurement assay, the IC50 of the besylate salt of the current invention against the various TRK kinases is shown in Table 1.

wildtype TRKB = molecular target: T2, wildtype TRKB (Homo sapiens, UniProt Q16620); experiment: Reaction Biology HotSpot Kinase assay (direct enzyme phosphorylation), TRKB; type: biochemical; details: 33P-ATP, 120 minutes at room temperature, filter-binding
T2 construct: purchased Reaction Biology
T2 sequence (Q16620 32-822): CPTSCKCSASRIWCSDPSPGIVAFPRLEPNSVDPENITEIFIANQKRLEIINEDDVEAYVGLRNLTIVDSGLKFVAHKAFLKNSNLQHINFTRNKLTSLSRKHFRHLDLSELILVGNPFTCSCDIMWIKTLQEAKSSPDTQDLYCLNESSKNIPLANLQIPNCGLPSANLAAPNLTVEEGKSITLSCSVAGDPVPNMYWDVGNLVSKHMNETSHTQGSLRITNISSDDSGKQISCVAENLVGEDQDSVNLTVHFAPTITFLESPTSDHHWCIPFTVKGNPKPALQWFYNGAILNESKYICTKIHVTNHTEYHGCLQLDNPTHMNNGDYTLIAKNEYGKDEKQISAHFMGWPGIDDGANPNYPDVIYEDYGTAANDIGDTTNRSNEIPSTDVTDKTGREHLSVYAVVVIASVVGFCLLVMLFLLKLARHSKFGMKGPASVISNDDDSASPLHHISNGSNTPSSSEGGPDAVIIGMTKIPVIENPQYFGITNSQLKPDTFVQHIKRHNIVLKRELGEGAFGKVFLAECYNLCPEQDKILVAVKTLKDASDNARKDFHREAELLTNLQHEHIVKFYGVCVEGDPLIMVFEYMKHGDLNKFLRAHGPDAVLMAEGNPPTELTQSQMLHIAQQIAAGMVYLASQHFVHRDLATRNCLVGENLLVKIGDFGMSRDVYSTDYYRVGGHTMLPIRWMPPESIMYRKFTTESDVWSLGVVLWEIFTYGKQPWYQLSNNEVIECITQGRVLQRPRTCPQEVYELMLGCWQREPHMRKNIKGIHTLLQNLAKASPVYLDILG
Experimental: as §1

wildtype TRKC = molecular target: T3, wildtype TRKC (Homo sapiens, UniProt Q16288); experiment: Reaction Biology HotSpot Kinase assay (direct enzyme phosphorylation), TRKC; type: biochemical; details: 33P-ATP, 120 minutes at room temperature, filter-binding
T3 construct: purchased Reaction Biology
T3 sequence (Q16288 32-839): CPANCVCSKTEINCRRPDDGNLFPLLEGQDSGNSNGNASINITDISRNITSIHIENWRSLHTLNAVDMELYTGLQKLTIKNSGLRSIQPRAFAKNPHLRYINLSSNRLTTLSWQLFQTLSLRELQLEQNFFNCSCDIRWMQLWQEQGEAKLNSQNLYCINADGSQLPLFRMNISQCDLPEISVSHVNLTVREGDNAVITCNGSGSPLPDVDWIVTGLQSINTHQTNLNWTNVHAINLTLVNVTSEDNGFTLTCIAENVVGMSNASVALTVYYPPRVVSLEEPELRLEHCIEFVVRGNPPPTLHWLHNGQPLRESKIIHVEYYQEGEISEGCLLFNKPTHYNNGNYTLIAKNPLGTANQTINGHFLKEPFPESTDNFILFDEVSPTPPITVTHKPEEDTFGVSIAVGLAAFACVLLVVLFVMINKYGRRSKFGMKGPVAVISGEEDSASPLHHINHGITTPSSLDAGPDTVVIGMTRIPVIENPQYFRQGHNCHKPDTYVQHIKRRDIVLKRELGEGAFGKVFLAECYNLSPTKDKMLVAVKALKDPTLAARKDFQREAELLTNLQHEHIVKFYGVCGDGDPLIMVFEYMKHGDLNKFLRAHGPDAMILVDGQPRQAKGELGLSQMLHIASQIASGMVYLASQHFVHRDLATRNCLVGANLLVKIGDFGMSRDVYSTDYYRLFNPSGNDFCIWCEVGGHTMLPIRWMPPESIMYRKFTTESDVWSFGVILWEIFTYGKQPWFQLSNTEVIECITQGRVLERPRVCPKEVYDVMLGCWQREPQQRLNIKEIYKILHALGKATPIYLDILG
Experimental: as §1

[1] = osteoarthritis patients, lowered dose with risk minimization strategy; 22 patients; cited from earlier work

T1 sequence (P04629 33-796): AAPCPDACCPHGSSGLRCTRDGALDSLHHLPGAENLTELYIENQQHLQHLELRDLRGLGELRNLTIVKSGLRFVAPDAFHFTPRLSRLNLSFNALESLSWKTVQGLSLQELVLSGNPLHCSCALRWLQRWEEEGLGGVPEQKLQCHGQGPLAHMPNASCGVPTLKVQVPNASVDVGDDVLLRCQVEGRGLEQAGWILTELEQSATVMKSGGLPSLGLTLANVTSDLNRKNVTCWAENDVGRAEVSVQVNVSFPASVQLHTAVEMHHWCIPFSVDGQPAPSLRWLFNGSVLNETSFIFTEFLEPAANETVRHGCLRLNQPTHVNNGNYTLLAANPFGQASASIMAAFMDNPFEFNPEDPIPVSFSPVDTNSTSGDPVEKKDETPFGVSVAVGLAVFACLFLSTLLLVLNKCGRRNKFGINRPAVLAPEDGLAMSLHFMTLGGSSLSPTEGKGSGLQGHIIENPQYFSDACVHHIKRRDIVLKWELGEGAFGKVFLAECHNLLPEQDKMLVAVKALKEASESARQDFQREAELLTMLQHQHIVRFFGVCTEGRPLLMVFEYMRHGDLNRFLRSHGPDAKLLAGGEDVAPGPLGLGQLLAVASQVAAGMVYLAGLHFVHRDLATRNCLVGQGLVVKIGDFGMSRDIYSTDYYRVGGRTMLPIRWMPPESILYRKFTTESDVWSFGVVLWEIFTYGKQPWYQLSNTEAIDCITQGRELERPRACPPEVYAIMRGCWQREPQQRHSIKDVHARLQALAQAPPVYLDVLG

IC50 (wildtype TRKA)	IC50 (wildtype TRKB)	IC50 (wildtype TRKC)	Compound	patients treated who required knee or joint replacement [1]
31 nM	77.7 nM	1.68 nM	CC1(COc2ccc3c(c2)ncn3-c2ccc3cccc(N4CCC(N)CC4)c3n2)COC1 [crenolanib besylate]	–
–	–	–	tanezumab	9.4%
